This is an account of results in PubChem BioAssay (NCI).

Among the test systems are COLO 205 colon; OVCAR-3 ovarian; LOX IMVI melanoma; 786-0 renal; SNB-19 CNS; M14 melanoma; U251 CNS; HOP-62 NSCLC; RXF 393 renal.
Holding throughout (assay): NCI anticancer screen, dose series, 48 h

Each structure is given as a SMILES string.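 Results reflect a 48-hour exposure of cells in 96-well plates to compound at five concentrations. Abbreviation: GI50, concentration required for 50% inhibition of growth. Definition used: TGI = concentration required for complete inhibition of growth.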 Some results are limits rather than exact numbers.

As to `CC(C)Oc1ccc(C(=O)Cn2ccnc2)cc1-n1c(CN2CCN(C(=O)COc3ccc(Cl)cc3)CC2)nc2ccccc2c1=O`, the GI50 in the assay with COLO 205 colon is 7.34 µM; with OVCAR-3 ovarian, 2.18 µM; in the assay with LOX IMVI melanoma, 9.64 µM; with 786-0 renal, 1.3 µM; in the assay on SNB-19 CNS, 29.6 µM; in the assay on M14 melanoma, 14 µM. The GI50 with U251 CNS was 13.2 µM; in the assay on HOP-62 NSCLC, 15 µM; with RXF 393 renal it was 7.48 µM. Besides, the TGI with COLO 205 colon is 32.7 µM; in the assay with OVCAR-3 ovarian, 13.2 µM; in the assay with LOX IMVI melanoma, 27.5 µM; in the assay with 786-0 renal it was 5.48 µM; in the assay with SNB-19 CNS it was more than 100 µM; in the assay on M14 melanoma it was 32.6 µM. Also, the TGI in the assay on U251 CNS is 30.2 µM; in the assay on HOP-62 NSCLC it was 44.9 µM; in the assay on RXF 393 renal it was 22.2 µM.

As for `COc1ccc(C2=C(N3CCc4ccccc43)C(=O)NC2=O)cc1`, the GI50 in the assay on COLO 205 colon, with OVCAR-3 ovarian, in the assay with LOX IMVI melanoma, in the assay with 786-0 renal, in the assay with SNB-19 CNS and in the assay on M14 melanoma was more than 25 µM throughout. The GI50 in the assay on U251 CNS, in the assay on HOP-62 NSCLC and with RXF 393 renal was more than 25 µM throughout. The TGI in the assay with COLO 205 colon, in the assay with OVCAR-3 ovarian, in the assay with LOX IMVI melanoma, in the assay on 786-0 renal, with SNB-19 CNS and in the assay with M14 melanoma was more than 25 µM in each case. Also, the TGI in the assay with U251 CNS, with HOP-62 NSCLC and in the assay on RXF 393 renal was more than 25 µM in each case.

Turning to `c1cnn2ncc(-c3ccnc(Nc4ccc5c(c4)OCCO5)n3)c2c1`, the GI50 was 0.0473 µM in the assay with COLO 205 colon; 0.0548 µM in the assay with OVCAR-3 ovarian; 0.0392 µM in the assay with LOX IMVI melanoma; 0.0764 µM in the assay with 786-0 renal; 0.0882 µM with SNB-19 CNS; 0.0699 µM in the assay on M14 melanoma. Besides, the GI50 in the assay with U251 CNS is 0.0778 µM; in the assay on HOP-62 NSCLC it was 0.0958 µM; with RXF 393 renal it was 0.0535 µM. The TGI with COLO 205 colon was 0.107 µM; in the assay with OVCAR-3 ovarian it was 0.142 µM; in the assay with LOX IMVI melanoma, more than 25 µM; with 786-0 renal, more than 25 µM; in the assay with SNB-19 CNS it was more than 25 µM; with M14 melanoma, 0.221 µM. For the same compound, the TGI in the assay with U251 CNS was 2.69 µM; in the assay on HOP-62 NSCLC it was more than 25 µM; in the assay with RXF 393 renal it was 0.137 µM.

Consider `CCN(CC)c1ccc(/C=C/C2=[N+](C)c3ccccc3C2(C)C)c(C)c1`, for which the GI50 was 0.0489 µM in the assay with COLO 205 colon; 0.0616 µM in the assay on OVCAR-3 ovarian; 0.0535 µM in the assay on LOX IMVI melanoma; 0.0941 µM in the assay with 786-0 renal; 0.0684 µM in the assay on SNB-19 CNS; 0.0853 µM in the assay with M14 melanoma. Besides, the GI50 in the assay on U251 CNS was 0.0364 µM; with HOP-62 NSCLC, 0.0983 µM; in the assay on RXF 393 renal, 0.0837 µM. In addition, the TGI turned out to be 0.127 µM in the assay on COLO 205 colon; 1.47 µM in the assay on OVCAR-3 ovarian; 1.28 µM in the assay on LOX IMVI melanoma; 1.88 µM in the assay with 786-0 renal; 9.36 µM in the assay on SNB-19 CNS; 1.64 µM with M14 melanoma. Further, the TGI in the assay with U251 CNS came out at 2.54 µM; with HOP-62 NSCLC, 1.74 µM; in the assay with RXF 393 renal, 2.85 µM.

Take `O=C1c2ccccc2-c2c1c1ccccc1c(=O)n2CCNCCn1c2c(c3ccccc3c1=O)C(=O)c1ccccc1-2`: the GI50 in the assay with COLO 205 colon was 2.2 µM; in the assay on OVCAR-3 ovarian, more than 25 µM; in the assay with LOX IMVI melanoma it was more than 25 µM; in the assay with 786-0 renal it was 12.2 µM; with SNB-19 CNS it was 0.333 µM; with M14 melanoma, more than 25 µM. Further, the GI50 in the assay on U251 CNS, in the assay on HOP-62 NSCLC and in the assay on RXF 393 renal was more than 25 µM each time. The TGI in the assay with COLO 205 colon, in the assay with OVCAR-3 ovarian, in the assay on LOX IMVI melanoma, in the assay on 786-0 renal, in the assay on SNB-19 CNS and in the assay on M14 melanoma was more than 25 µM in each case. For the same compound, the TGI in the assay on U251 CNS, in the assay on HOP-62 NSCLC and in the assay on RXF 393 renal was more than 25 µM in each case.

Consider `Cc1cc(C)n(C2=NS(=O)(=O)c3ccccc3N2C)n1`, for which the TGI with COLO 205 colon, in the assay on OVCAR-3 ovarian, with LOX IMVI melanoma, with 786-0 renal, in the assay on SNB-19 CNS and in the assay on M14 melanoma was more than 100 µM in each case. Besides, the TGI in the assay with U251 CNS, in the assay on HOP-62 NSCLC and with RXF 393 renal was more than 100 µM in each case.

Regarding `c1ccc2[nH]c(CNc3ccc(C4C[Se]N=N4)cc3)nc2c1` (stereo not drawn), the TGI is more than 100 µM with COLO 205 colon; 96.9 µM in the assay with OVCAR-3 ovarian; more than 100 µM in the assay with LOX IMVI melanoma; more than 100 µM in the assay on 786-0 renal; more than 100 µM in the assay on SNB-19 CNS; more than 100 µM with M14 melanoma. Besides, the TGI with U251 CNS, in the assay on HOP-62 NSCLC and with RXF 393 renal was more than 100 µM each time.

Take `Cc1cccc(C)c1N1C(=O)C(=O)C(c2nc3ccccc3s2)C(=Nc2cccc3c(=O)[nH][nH]c(=O)c23)C1=O` (stereo not drawn): the TGI in the assay with COLO 205 colon, in the assay on OVCAR-3 ovarian, in the assay on LOX IMVI melanoma, in the assay on 786-0 renal, in the assay with SNB-19 CNS and with M14 melanoma was more than 100 µM throughout. Besides, the TGI in the assay with U251 CNS and with HOP-62 NSCLC was more than 100 µM each time.

As to `Cc1cccc(N=Nc2ccc(N=Nc3c(O)ccc4ccccc34)cc2C)c1`, the TGI in the assay with COLO 205 colon, in the assay on OVCAR-3 ovarian, in the assay with 786-0 renal, in the assay on SNB-19 CNS, in the assay with M14 melanoma and with U251 CNS was more than 100 µM throughout. Further, the values for the TGI with HOP-62 NSCLC and with RXF 393 renal were 89.6 µM and more than 100 µM, respectively.

In the case of `N.N.N.N.N.O=S(=O)([O-])S(=O)(=O)[O-].[Co+3]`, the GI50 in the assay on COLO 205 colon, in the assay on OVCAR-3 ovarian, in the assay with LOX IMVI melanoma, with 786-0 renal, in the assay with SNB-19 CNS and in the assay on M14 melanoma was more than 100 µM throughout. In addition, in the assay on U251 CNS, the GI50 was more than 100 µM. Further, the TGI with COLO 205 colon, with OVCAR-3 ovarian, with LOX IMVI melanoma, with 786-0 renal, in the assay with SNB-19 CNS and in the assay on M14 melanoma was more than 100 µM each time. In the assay on U251 CNS, the TGI was more than 100 µM.
